Values quoted from earlier work, collected in patent publication US5006329A, “Radioactive tagged compounds and method for the treatment of metastatic bone cancer” (priority 1989, dated 1991).

What was measured:
[1] = test system: malignant bone tissue; settings: tumor vs normal bone
[2] = test system: bone marrow; settings: after treatment of a patient; reported
[3] = test system: bone cancer; settings: HMDP with Samarium-153 label
[4] = for high energy beta emissions: e.g.
[5] = test system: metastatic bone cancer; settings: over 100 patients

| Compound | accretion rate of tumor compared with normal bone [1] | blood profile changes [2] | safety with respect to healthy bone marrow tissue [3] | effectiveness in treating the malignancy ([3]; preliminary results) | half-life (radioactive) [4] | high energy beta emissions [4] | degree of malignancy [5] | dose of radioactivity to bone marrow [5] | pain [5] | effectiveness in treating the cancer ([5]; Dr. Ralph Robinson) |
| --- | --- | --- | --- | --- | --- | --- | --- | --- | --- | --- |
| O=P([O-])([O-])CP(=O)(O)O.[Na+].[Na+] [MDP, disodium methylene-diphosphonate] | substantially higher than normal bone | – | – | – | – | – | – | – | – | – |
| [153Sm] [Samarium-153] | – | blood profile changes occur | indeterminate | promising | two | 600-700 KeV | – | – | – | – |
| Strontium-89 | – | blood profile changes occur | – | – | – | 800 KeV | reduced | unacceptably high | reduced | acceptable |
